In article PMC9914926, “Bioactive Compounds of Underground Valerian Extracts and Their Effect on Inhibiting Metabolic Syndrome-Related Enzymes Activities” (Foods, 2023):
Read-outs that look alike come from different tables or passages of the source.

What was measured:
[1] = molecular target: T1, porcine pancreatic α-amylase (Sus scrofa, UniProt P00690); experiment: α-amylase inhibition assay; assay type: biochemical; settings: for inhibition of α-amylase activity: 0.5–2 mg/mL; for inhibition ability on α-amylase: dosage 0–2.5 mg/mL
T1 construct: purchased Sigma-Aldrich (St. Louis, MO, USA); host or cells: porcine pancreas
T1 sequence (P00690 16-511): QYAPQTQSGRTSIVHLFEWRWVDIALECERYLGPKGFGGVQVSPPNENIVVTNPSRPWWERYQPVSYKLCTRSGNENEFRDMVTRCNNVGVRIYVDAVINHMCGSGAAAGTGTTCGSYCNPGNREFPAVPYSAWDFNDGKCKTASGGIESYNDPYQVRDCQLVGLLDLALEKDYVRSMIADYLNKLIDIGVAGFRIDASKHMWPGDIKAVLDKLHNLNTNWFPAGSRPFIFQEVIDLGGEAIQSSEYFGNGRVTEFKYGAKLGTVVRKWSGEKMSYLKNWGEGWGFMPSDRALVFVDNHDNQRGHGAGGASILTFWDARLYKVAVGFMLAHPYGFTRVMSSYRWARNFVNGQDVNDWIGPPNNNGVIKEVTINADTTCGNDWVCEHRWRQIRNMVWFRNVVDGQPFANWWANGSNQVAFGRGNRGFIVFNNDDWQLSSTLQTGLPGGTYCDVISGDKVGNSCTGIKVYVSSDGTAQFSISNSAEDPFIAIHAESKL

rabbit lung ACE = molecular target: T2, rabbit lung ACE (Oryctolagus cuniculus, UniProt P12822); experiment: ACE inhibition assay (hippuric acid by HPLC); assay type: biochemical
T2 construct: purchased Sigma-Aldrich (St. Louis, MO, USA); host or cells: rabbit lung
T2 sequence (P12822 34-1310): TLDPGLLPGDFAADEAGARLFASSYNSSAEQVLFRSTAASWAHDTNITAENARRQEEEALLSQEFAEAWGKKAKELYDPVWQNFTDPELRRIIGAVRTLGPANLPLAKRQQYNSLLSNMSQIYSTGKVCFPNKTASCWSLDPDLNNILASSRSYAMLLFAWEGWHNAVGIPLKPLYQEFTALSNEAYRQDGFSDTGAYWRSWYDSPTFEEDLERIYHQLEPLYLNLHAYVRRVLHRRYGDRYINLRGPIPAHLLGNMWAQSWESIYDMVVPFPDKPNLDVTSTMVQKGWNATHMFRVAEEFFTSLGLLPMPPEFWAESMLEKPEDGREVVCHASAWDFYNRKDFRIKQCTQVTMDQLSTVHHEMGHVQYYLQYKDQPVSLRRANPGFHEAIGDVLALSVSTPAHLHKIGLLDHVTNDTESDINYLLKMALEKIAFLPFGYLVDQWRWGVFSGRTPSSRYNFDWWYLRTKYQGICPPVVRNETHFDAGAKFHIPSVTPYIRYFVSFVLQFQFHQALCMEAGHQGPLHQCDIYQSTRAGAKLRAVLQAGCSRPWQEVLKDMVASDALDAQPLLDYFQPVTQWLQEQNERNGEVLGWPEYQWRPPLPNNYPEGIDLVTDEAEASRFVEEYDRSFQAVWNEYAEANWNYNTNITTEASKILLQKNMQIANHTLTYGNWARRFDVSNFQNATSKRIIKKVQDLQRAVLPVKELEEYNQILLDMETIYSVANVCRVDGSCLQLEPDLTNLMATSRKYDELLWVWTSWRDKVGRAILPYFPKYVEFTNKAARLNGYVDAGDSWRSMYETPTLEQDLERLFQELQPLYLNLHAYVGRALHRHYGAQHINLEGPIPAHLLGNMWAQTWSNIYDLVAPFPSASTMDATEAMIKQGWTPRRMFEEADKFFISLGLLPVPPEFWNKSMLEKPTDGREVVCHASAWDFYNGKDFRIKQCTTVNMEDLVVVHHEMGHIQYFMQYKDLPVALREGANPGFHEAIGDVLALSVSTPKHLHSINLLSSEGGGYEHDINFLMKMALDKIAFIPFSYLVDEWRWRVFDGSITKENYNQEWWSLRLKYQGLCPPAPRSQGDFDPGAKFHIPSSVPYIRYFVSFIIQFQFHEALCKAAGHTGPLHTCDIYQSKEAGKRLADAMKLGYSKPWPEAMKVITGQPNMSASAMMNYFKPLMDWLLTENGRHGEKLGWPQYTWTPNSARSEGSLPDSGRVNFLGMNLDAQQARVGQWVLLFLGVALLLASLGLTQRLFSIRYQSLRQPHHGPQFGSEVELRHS

pancreatic lipase = molecular target: T3, pancreatic lipase (Homo sapiens, UniProt P16233); experiment: lipase inhibition assay; assay type: biochemical; settings: for inhibition of pancreatic lipase activity: 0.5–2 mg/mL
T3 sequence (P16233 17-465): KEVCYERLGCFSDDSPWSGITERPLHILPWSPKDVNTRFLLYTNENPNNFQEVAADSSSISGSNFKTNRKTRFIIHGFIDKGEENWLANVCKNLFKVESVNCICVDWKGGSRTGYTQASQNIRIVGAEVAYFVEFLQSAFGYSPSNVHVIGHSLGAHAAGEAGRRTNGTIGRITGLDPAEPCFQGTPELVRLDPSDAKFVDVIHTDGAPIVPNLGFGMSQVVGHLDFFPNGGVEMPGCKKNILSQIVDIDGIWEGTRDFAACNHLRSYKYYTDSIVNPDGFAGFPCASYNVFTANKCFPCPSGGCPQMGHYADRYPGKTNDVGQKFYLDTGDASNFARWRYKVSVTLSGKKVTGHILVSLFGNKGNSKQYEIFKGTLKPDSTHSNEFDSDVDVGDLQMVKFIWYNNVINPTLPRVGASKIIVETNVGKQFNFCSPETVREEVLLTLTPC

[2] = scavenging ability on DPPH radicals; settings: 0–250 μg/mL
Procedure: The scavenging ability of each extract on DPPH radicals was determined based on the method by Shimada et al.. Each extract was prepared in methanol at 0–1000 μg extract/mL, and 4 mL was mixed with 1 mL of methanolic solution containing DPPH radicals to a final concentration of 0.2 mM DPPH. After the mixture was shaken vigorously, it was left to stand in the dark for 30 min, and then the absorbance of the mixture was measured at 517 nm against a blank. […] Ascorbic acid, BHA, α-tocopherol, acetoxyvalerenic acid, and valerenic acid were compared. Each analysis was carried out in quadruplicate.

α-glucosidase = α-glucosidase inhibition assay; assay type: biochemical
[3] = read-out: IC50, ACE (converted)

Compound | IC50, α-Glucosidase (α-glucosidase) | IC50 (rabbit lung ACE; [3]) [mM] | IC50 (pancreatic lipase) [mM] | inhibition ability on α-amylase [1] | other results
C[C@H]1O[C@H](O[C@H]2[C@H](O)[C@@H](O)[C@@H](O[C@H]3[C@H](O)[C@@H](O)C(O)O[C@@H]3CO)O[C@@H]2CO)[C@H](O)[C@@H](O)[C@@H]1N[C@H]1C=C(CO)[C@@H](O)[C@H](O)[C@H]1O (stereo partly drawn) [Acarbose, acarbose, reference compound] |  |  |  |  | inhibitory ability of α-amylase ([1]; 5–25 μg/mL): 47–88%
CC(=O)O[C@@H]1CC(C)=C2[C@H]1[C@H](C)CC[C@H]2/C=C(\C)C(=O)O [Acetoxyvalerenic acid, acetoxyvalerenic acid] | 1.827 ± 0.005D mg/mL |  |  |  | inhibitory ability on ACE (rabbit lung ACE; 2 mg/mL): 15%; inhibition of α-amylase activity [1]: could not effectively inhibit; inhibition of pancreatic lipase activity (pancreatic lipase): Neither; ability to scavenge DPPH radicals [2]: not able to scavenge the DPPH radicals
O=C(O)/C=C/c1ccc(O)c(O)c1 [Caffeic acid, caffeic acid] | 1.289 ± 0.024E mg/mL | 0.522 | 4.03 |  | 
O=C(/C=C/c1ccc(O)c(O)c1)O[C@@H]1C[C@](O)(C(=O)O)C[C@@H](O)[C@H]1O [Chlorogenic acid] |  | 13.6 | 3.13 | 0–89.52% | IC50 ([1]; read-out: IC50, α-Amylase (converted)): 5.06 mM
O=C(O)c1cc(O)c(O)c(O)c1 [Gallic acid, gallic acid] | 2.164 ± 0.026C mg/mL |  | 3.66 | 0–95.22% | IC50 (rabbit lung ACE): 12.3 mM; IC50 [1]: 7.39 mM
O=C(O)c1ccc(O)c(O)c1 [Protocatechuic acid, protocatechuic acid] | 3.721 ± 0.042B mg/mL | 16 | 4.37 | 0–88.03% | 
CC1=C2[C@H](/C=C(\C)C(=O)O)CC[C@@H](C)[C@H]2CC1 [Valerenic acid] | 0.617 ± 0.028F mg/mL |  |  |  | IC50, ACE (rabbit lung ACE): 0.225 ± 0.023D mg/mL; inhibition of α-amylase activity [1]: could not effectively inhibit; inhibition of pancreatic lipase activity (pancreatic lipase): Neither; ability to scavenge DPPH radicals [2]: not able to scavenge the DPPH radicals
